Test results: US8354400B2, “Benzoxazole compounds and methods of use” (Eisai R&D Co., Ltd., priority 2008, dated 2013)

Key:
human TLR7 = biological target: T1, human TLR7 (Homo sapiens, UniProt Q9NYK1); assay: HEK/TLR7 activation assay (R848 stimulation); format: cell-based; details: HEK cells transfected with human TLR7
T1 construct: expressed in transfected cells; host or cells: HEK cell line (HEK293, as in the primary assay)
T1 sequence (Q9NYK1 27-1049): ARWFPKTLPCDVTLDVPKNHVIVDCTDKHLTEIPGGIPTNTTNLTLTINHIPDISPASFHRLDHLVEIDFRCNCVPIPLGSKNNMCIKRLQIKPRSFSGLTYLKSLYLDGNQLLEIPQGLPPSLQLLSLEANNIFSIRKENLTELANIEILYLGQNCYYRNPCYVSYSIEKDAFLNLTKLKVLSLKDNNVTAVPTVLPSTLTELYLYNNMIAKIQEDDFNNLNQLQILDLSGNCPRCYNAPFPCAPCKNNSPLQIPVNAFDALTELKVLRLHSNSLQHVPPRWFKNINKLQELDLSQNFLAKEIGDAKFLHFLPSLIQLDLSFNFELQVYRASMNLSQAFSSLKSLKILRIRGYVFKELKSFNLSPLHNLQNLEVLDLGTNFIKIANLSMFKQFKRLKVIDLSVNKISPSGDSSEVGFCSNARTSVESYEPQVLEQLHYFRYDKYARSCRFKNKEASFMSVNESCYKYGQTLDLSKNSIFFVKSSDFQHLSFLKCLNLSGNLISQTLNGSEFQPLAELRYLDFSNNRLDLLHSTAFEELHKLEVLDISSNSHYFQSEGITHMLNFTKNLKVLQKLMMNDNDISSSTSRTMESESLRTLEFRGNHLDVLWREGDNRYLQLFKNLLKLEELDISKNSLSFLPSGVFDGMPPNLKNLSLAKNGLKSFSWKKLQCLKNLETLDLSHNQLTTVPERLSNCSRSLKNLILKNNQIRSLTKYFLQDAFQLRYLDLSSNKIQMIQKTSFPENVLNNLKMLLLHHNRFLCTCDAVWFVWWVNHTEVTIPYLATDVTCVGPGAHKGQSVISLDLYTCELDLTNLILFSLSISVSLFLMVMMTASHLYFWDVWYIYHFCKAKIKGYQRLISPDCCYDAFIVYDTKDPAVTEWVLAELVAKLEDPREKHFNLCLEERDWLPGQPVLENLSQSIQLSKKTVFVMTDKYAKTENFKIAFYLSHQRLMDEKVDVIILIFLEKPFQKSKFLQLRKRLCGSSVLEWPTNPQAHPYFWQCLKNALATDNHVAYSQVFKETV
Procedure: (1) HEK/TLR7Activation Assay: The same compounds were tested in the same way as the primary assay with the following differences. The plasmid used to transfect the HEK cell line encoded for human TLR7 instead of TLR9, and R848 was used to stimulate the cells instead of Oligo CpG 2006.

[1] = system: mouse spleen IL-6 production in response to Oligo CpG 1668; assay: Splenocyte CpG 1668 assay (IL-6 ELISA); format: cell-based; details: mouse splenocytes, Oligo CpG 1668, 72 hrs
Procedure: (2) Splenocyte CpG 1668 Assay: Some of the compounds tested in the primary assay were also assayed for suppression of mouse spleen IL-6 production in response to stimulation with Oligo CpG 1668, a synthetic phosphorothioate oligonucleotide (Krieg et al. Nature. 374:546-9 (1995)), with nucleotide sequence [NT] (SEQ ID NO:2). Each compound was added to dissociated splenocytes before addition of stimulatory oligonucleotide. Cells were stimulated in culture for 72 hrs and the supernatant was removed for ELISA analysis of IL-6 level. Here the IC50 is defined as the concentration of compound that suppresses cytokine production to 50% of that observed in the absence of compound, i.e., full stimulation.

Row | Compound | IC50 (human TLR7) [nM] | IC50 [1] [nM]
1 | c1cc(-c2nc3ccc(OCCCN4CCC(N5CCCC5)CC4)cc3o2)ccc1OCCCN1CCC(N2CCCC2)CC1 [Compound 20] | 1820 | 6
2 | CN1CCCN(CCCOc2ccc(-c3nc4ccc(OCCCN5CCCN(C)CC5)cc4o3)cc2)CC1 [Compound 14] | 620 | 4
3 | CN(C)CCN(C)CCCOc1ccc(-c2nc3ccc(OCCCN(C)CCN(C)C)cc3o2)cc1 [Compound 22] | 500 | 10
4 | CN(C)CCCOc1ccc(-c2nc3ccc(OCCCN(C)C)cc3o2)cc1 [Compound 2] | 2210 | 48
5 | c1cc(CN2CCOCC2)ccc1CNCCCOc1ccc(-c2nc3ccc(OCCCNCc4ccc(CN5CCOCC5)cc4)cc3o2)cc1 [Compound 13] | 460 | 3
6 | CCN(CC)CCN(C)CCCOc1ccc(-c2nc3ccc(OCCCN(C)CCN(CC)CC)cc3o2)cc1 [Compound 31] | 440 | 6
7 | c1cc(-c2nc3ccc(OCCCN4CCCCC4)cc3o2)ccc1OCCCN1CCCCC1 [Compound 30] | 1140 | 25
8 | CN1CCN(c2ccc(CNCCCOc3ccc(-c4nc5ccc(OCCCNCc6ccc(N7CCN(C)CC7)cc6)cc5o4)cc3)cc2)CC1 [Compound 11] | 470 | 2
9 | CN(C)[C@@H]1CCN(CCCOc2ccc(-c3nc4ccc(OCCCN5CC[C@@H](N(C)C)C5)cc4o3)cc2)C1 [Compound 16] | 430 | 8
10 | c1cc(-c2nc3ccc(OCCCN4CCCC4)cc3o2)ccc1OCCCN1CCCC1 [Compound 23] | 1550 | 18
11 | CN(C)CCCN(C)CCCOc1ccc(-c2nc3ccc(OCCCN(C)CCCN(C)C)cc3o2)cc1 [Compound 27] | 980 | 4
12 | CCN(CC)CCNCCCOc1ccc(-c2nc3ccc(OCCCNCCN(CC)CC)cc3o2)cc1 [Compound 12] | 780 | 4
